Measurements as given in article PMC7358525, “Characterization of PF-6142, a Novel, Non-Catecholamine Dopamine Receptor D1 Agonist, in Murine and Nonhuman Primate Models of Dopaminergic Activation” (Frontiers in Pharmacology, 2020).

What was measured:
Type in all cases: in vivo
mouse locomotor activity = assay: Mouse locomotor activity (LMA)
Experimental: Locomotor activity data were measured by an automated infrared photo-beam system in sound attenuating chambers controlled by Versamax® software, provided by Accuscan Instruments Inc. (Columbus, Ohio), which quantified beam breaks similar to the methods used previously ([Xu et al., 2000]). To test D1 receptor selectivity in a pharmacologic model, C57BL/6J mice were habituated to the apparatus for 90 min, followed by pretreatment with vehicle or SCH-23390 (0.01, 0.032, 0.1 0.32, s.c.) and returned to the apparatus for 30 min. […] Data were compared against the vehicle group using a repeated measures one-way ANOVA with a Dunnett’s post-test. To test D1 receptor selectivity in a genetic model, DRD1a WT and knockout mice (D1 KO) were habituated to the apparatus for 90 min, pretreated with vehicle or SCH-23390 (0.032 mg/kg, s.c.) and returned to the apparatus for 30 min. […] Data were compared within genotype using a two-way ANOVA with a Dunnett’s post-hoc test versus vehicle treated group.

[1] = tested on: mPFC low frequency delta activity; assay: mPFC low frequency delta field potential oscillation power, anesthetized rat
Experimental: (§1) Experiments were performed on n=10 adult male Sprague-Dawley rats (275–305 g) under urethane anesthesia (1.5 g/kg, i.p.). The femoral vein was cannulated for i.v. administration of drugs. A stimulation electrode was placed in the CA1/subiculum region (coordinates: A-P = +6.3 mm, M–L = +5.2 mm, D-V = +8.0 mm) using stereotactic methods and unilateral local field potential (LFP) was recorded by a metal monopolar macroelectrode placed into the medial PFC (mPFC; coordinates: A-P = +3.0 mm, M-L = +0.6 mm, D-V = +5.0 mm). […] Evoked responses to the first and the second stimuli were identified (P1 and P2, respectively) and the amount of PPF determined by the formula: (P2 amplitude/P1 amplitude). Waveform averages used to calculate PPF consisted of 60 consecutive stimuli. Five minutes were allowed between administration of each drug dose and the starting of the subsequent average of each 10-min period after each cumulative dose (0.1–1 mg/kg, IV). Disruption in power of LFP delta activity was measured as the percentage of power in low frequency (0–1.8 Hz) irregular activity in the total (0–4 Hz) delta power range. LFP power spectra were determined during periods concurrent with waveform averages and PPF calculation. Statistical significance was determined by means of two-tailed paired Student’s t-test.

[2] = tested on: MK-801-disrupted paired-pulse facilitation; assay: Paired-pulse facilitation (PPF), CA1/subiculum to mPFC, urethane-anesthetized rat
Experimental: as §1

[3] = tested on: acetylcholine levels in the PFC of WT and D1 KO mice; assay: Prefrontal cortex acetylcholine levels via microdialysis, WT and D1 KO mouse; conditions: SCH-23390 0.32 mg/kg SC, mice
Excerpt: Adult male Sprague-Dawley rats (280–360 g) were obtained from Charles-River Laboratories, Raleigh, NC and male C57BL/6J DRD1a WT and D1 DA receptor knockout mice (DRD1a-905781) were obtained from The Jackson Laboratories (Bar Harbor, ME). Animals were housed on a 12-h light/dark cycle with free access to food and water and allowed to acclimate for at least 5 d after arrival. Aseptic technique was used during the surgical procedure in order to prevent infection. On the day of the procedure animals were anesthetized with isoflurane (4%) and their heads shaved. The animals were then placed into a Kopf stereotaxic frame, the surgical area disinfected by swabbing with Provodine solution, and the area isolated with a sterile surgical drape. Anesthesia was maintained with isoflurane (2.5%–3%) delivered through a nose cone using a Univentor 400 anesthesia unit. Animals were given a 0.1 ml subcutaneous (s.c.) injection of Metacam (NSAID, meloxicam, 5 mg/ml, Boehringer Ingelheim) as a post-operative analgesic. Marcaine (bupivacaine, 0.5%, Hospira, Lake Forest, IL), a long acting local anesthetic, was administered s.c. at the surgical area to minimize pain and discomfort.
A 1.5–2 cm incision was made along the midline of the skull, beginning from a point just behind the eyes and running posterior. The skin was retracted with hemostats and the skull was further exposed using blunt dissection with cotton swabs. Bleeding capillaries were cauterized, and the skull dried with a sterile gauze sponge.
A microdialysis guide cannula [Bioanalytical Systems Inc (BAS), West Lafayette, IN, part # MD-2251] was placed into a guide holder on the stereotaxic frame and positioned over “Bregma”. The guide cannula was positioned over the PFC (A-P, +3.2 mm; M-L, +0.7 mm, left, relative to bregma) and the location marked on the skull. Using a 0.7 mm burr, a hole was made in the skull at the cannula position. […]
For conventional analysis, ACh was analyzed by high performance liquid chromatography (HPLC) utilizing a modification of the BAS ACh-choline assay kit (BAS part # MF-8910). […]

[4] = tested on: prepulse inhibition of startle; assay: Mouse prepulse inhibition (PPI) and acoustic startle; conditions: risperidone 0.56 mg/kg s.c., C57BL/6J mice
Experimental: Drug and behaviorally naïve adult male C57BL/6J mice (9–11 weeks of age; n=8 per dose group) were used for PPI experiments. Subjects were tested individually in SR-Lab acoustic startle chambers (San Diego Instruments, San Diego CA, USA) equipped with a restrainer mounted atop a piezoelectric accelerometer which measured transduced movement in response to the presentation of audio stimuli presented through a speaker mounted 20 cm above the animal. Subjects were acclimated to an anteroom adjacent to the testing room at minimum 60 min prior to testing. Test sessions began with a 5 min acclimation period to background noise (65 dB) followed by presentation of six randomized repetitions of the 120 dB startle stimulus (40 ms duration) presented alone or paired in combination with a pre-pulse stimulus of 68, 72, or 74 db (20 msec in duration) presented 80 msec prior to the 120 dB startle stimulus, which was equivalent to +3, +7, and +9 db over background noise, respectively. Data were also recorded for no stimulus values to evaluate background level of response. The inter-trial interval between stimulus presentations was randomized and ranged from 10 to 20 s. Test compounds were administered 30 min (s.c.) prior to testing. […] Percent PPI was calculated for each individual subject as the relative change in the 120 dB startle response in the presence of each prepulse intensity using the formula: 100-((prepulse-pulse)/pulse)*100 as previously described ([Ralph-Williams et al., 2003]).
The experiment was analyzed using a two-way mixed model ANOVA (lme4 library in R software). The model included prepulse stimulus intensity levels, treatment (as all combinations of pre-treatment and treatment), and their interaction as fixed factors and random intercept, random slope for each animal as random factors. […] In order to adjust for multiple hypothesis testing we used false discover rate method which controls the expected proportion of false discoveries among the rejected hypotheses. For all statistical tests, p < 0.05 between groups was considered significant.

[5] = tested on: conditioned avoidance responding; assay: Rat conditioned avoidance response (CAR)
Experimental: The CAR assay was performed under similar conditions previously described ([Marquis et al., 2011]) at WuXiAppTec Inc. (Delin Rd. #90, Waigaoquiao Free Trade Zone, Shanghai 200131, China). For this study, adult male Fisher-344 rats were trained and tested in a two-way active avoidance apparatus with MED-PC software (MED Associates, St. Albans, VT, USA).
Briefly, subjects were handled and acclimated to the shuttle boxes for 2 d prior to training sessions. During training sessions, subjects were trained to avoid an electric footshock by moving to the adjacent, non-stimulus side of the shuttle box upon presentation of tone + light stimuli which preceded the presentation of the footshock (0.6 mA, 10 s duration) by 10 s. For this assay an avoidance was defined as moving to the adjacent compartment during the tone+light presentation that preceded the shock, an escape was defined as moving to the adjacent compartment upon presentation of the shock, and an escape failure was defined as a lack of relocation to the adjacent compartment throughout the presentation of the shock. Subjects received 30 trials of training per day for 5 d. Subjects with ≥ 80% avoidance responses on two consecutive days with no escape failures, were considered qualified for testing, and were randomized across treatment groups (n=8–9 per treatment group). […] Avoidance responding was calculated as % of the number of total trials in which an avoidance occurred. Data were calculated for each animal and compared across treatment groups using one-way ANOVA with Dunnett’s post-test versus the vehicle + vehicle treated group.

NC[C@@H]1O[C@H](C23CC4CC(CC(C4)C2)C3)Cc2c1ccc(O)c2O [A-77636, reference compound]
locomotor activity, five consecutive days of dosing (mouse locomotor activity; 3.2 mg/kg s.c. daily, CD-1 mice): increased locomotor activity

C[C@]12N[C@H](Cc3ccccc31)c1ccccc12 [MK-801]
low frequency (0-1.8 Hz) irregular delta activity ([1]; MK-801 0.1 mg/kg IV (p=0.01)): significant increase
increase of P1 response amplitude ([2]; MK-801 0.1 mg/kg IV): 44%
increase of P2 response amplitude ([2]; MK-801 0.1 mg/kg IV): 10%
PPF ([2]; MK-801 0.1 mg/kg IV (p=0.04)): significant decrease

CN1CCc2cc(Cl)c(O)cc2[C@@H](c2ccccc2)C1 [SCH-23390, reference compound]
effect on PF-6142-induced increase in PFC ACh level [3]: attenuated
mPFC low frequency delta activity ([1]; SCH-23390 0.32 mg/kg IV alone (p=0.19)): no significant effect
effect on PF-6142-increased activity in WT mice (mouse locomotor activity; SCH-23390 0.032 mg/kg s.c. pretreatment): attenuated
effect on PF-6142 (10 mg/kg s.c.)-stimulated activity (mouse locomotor activity; SCH-23390 pretreatment 0.01, 0.032, 0.1, 0.32 mg/kg s.c.): blocked
baseline P1 and P2 response amplitudes ([2]; SCH-23390 0.32 mg/kg IV): no effect
control PPF ([2]; SCH-23390 0.32 mg/kg IV (p=0.06)): no impact
effect on PF-6142 (1-3 mg/kg IV) reversal of MK-801 effects on PPF ([2]; SCH-23390 0.32 mg/kg IV pretreatment): block

Cc1nc2n(c(=O)c1CCN1CCC(c3noc4cc(F)ccc34)CC1)CCCC2 [risperidone, reference compound]
%PPI [4]: produced an increase in %PPI
mean % avoidance responses ([5]; risperidone 0.1 mg/kg s.c.): 83.33%
mean % avoidance responses ([5]; risperidone 0.56 mg/kg s.c. (p<0.001)): 6.875%
